Source: patent US10835624B2, “Compounds for imaging Tau protein aggregates” (AC IMMUNE S.A., priority 2016, dated 2020)
Values joined by “and” are separate entries in the source; they are usually repeats but may differ in a detail not shown here. Identical values can stand only once. Like-named read-outs stand apart in the source and are kept apart here.

How the values were obtained:
Tau = Tau (Homo sapiens, UniProt P10636); experiment: Tau competition binding in human AD brain homogenate with 18F-labeled Tau binder; conditions: for Binding affinity for Tau (in words): IC50 determined in AD brain homogenate, compared with 3a
Tau, sequence (P10636 623-708 limits assumed): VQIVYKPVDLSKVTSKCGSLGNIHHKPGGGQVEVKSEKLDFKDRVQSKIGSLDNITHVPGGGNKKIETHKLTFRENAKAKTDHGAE
Protocol: (§1) 20 μg of human Alzheimer disease brain homogenate was incubated with a dilution series of each test compound (1000 to 0.06 nM) in the presence of 800 Bq of ^18F-labeled Tau binder. The samples were shaken at 110 rpm for 45 min at 37° C. Samples were then filtered through GF/B 96 well filter plates and washed twice with 300 μL assay buffer (PBS containing 0.1% BSA and 2% DMSO). Thereafter, filter plates were sealed and a Fuji Film Imaging Plate (BAS-SR2025) was placed on top. The imaging plate was analyzed after overnight exposition using a Fuji Film BAS-5000. Non-specific signal was determined with samples containing ^18F-labeled Tau-reference binder in the presence of assay buffer without brain substrate and competitor. […] The unblocked ^18F-labeled Tau-binder signal was defined as total binding. IC50 values were calculated by Prism V6 (GraphPad) setting total binding to 100%.

MAO A [1] = biological target: T1, MAO A (Mus musculus, UniProt Q64133); experiment: MAO A 18F-FEH competition assay in mouse brain homogenate; type: binding; conditions: for Selectivity over MAO A (in words): compared with 3a
T1 construct: from tissue; host or cells: whole mouse brain homogenate
T1 sequence (Q64133 1-526): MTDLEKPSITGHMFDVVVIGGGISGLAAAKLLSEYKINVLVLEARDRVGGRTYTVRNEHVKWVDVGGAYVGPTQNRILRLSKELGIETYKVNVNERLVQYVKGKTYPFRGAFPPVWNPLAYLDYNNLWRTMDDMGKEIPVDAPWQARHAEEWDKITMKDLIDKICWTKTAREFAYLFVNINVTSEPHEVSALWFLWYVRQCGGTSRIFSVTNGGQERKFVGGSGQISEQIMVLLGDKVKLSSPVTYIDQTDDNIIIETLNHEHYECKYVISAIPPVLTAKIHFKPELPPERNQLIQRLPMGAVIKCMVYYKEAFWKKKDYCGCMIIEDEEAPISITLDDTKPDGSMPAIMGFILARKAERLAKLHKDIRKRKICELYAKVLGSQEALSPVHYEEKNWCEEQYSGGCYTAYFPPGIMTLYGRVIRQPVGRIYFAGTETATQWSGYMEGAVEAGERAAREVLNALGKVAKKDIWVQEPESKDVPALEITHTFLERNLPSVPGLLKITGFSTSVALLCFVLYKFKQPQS

MAO A [2] = biological target: T2, MAO A (Homo sapiens, UniProt P21397); experiment: MAO A FEH competition assay in human HC brain homogenate; type: binding; conditions: human healthy control brain homogenate; FEH competition
T2 construct: 20 μg of human brain homogenate (without AD pathology); from tissue; host or cells: human brain homogenate without AD pathology (healthy control)
T2 sequence (P21397 1-527): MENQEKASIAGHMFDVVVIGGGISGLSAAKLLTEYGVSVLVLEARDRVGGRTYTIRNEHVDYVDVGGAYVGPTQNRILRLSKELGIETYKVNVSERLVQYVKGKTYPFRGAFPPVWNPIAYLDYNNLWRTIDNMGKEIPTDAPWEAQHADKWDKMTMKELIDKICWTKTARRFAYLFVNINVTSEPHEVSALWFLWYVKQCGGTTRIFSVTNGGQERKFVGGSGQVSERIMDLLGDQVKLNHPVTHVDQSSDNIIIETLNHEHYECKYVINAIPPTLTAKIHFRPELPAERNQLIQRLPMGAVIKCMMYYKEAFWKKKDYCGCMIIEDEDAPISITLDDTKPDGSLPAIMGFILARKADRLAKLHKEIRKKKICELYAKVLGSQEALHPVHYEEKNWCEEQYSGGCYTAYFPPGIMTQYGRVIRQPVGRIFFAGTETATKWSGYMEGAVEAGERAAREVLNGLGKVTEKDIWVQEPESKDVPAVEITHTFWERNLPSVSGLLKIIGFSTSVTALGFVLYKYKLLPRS
Protocol: as §1, with “human” for “human Alzheimer disease”, “homogenate (without AD pathology)” for “homogenate”, “MAO-A binder ([^18F]fluoroethyl harmine, FEH).” for “Tau binder.”, “FEH” for “Tau-reference binder”, “FEH” for “Tau-binder”

MAO B = biological target: T3, MAO B (Homo sapiens, UniProt P27338); experiment: MAO B 18F-fluoro deprenyl competition assay in human HC brain homogenate; type: binding
T3 construct: 20 μg of human brain homogenate (without AD pathology); from tissue; host or cells: human brain homogenate without AD pathology (healthy control)
T3 sequence (P27338 1-520): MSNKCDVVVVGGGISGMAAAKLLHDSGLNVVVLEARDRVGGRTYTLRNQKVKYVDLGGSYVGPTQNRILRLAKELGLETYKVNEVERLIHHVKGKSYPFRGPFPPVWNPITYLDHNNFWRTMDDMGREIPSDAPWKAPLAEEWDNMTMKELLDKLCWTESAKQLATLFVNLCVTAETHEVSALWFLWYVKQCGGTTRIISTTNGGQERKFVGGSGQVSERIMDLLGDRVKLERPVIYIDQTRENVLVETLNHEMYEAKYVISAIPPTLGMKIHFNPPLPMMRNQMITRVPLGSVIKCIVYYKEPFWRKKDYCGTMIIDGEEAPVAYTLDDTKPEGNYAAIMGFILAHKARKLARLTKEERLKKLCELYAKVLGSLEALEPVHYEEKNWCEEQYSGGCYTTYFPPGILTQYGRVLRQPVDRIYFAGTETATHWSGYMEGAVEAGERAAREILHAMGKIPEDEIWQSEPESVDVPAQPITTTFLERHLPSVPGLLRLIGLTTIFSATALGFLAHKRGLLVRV
Protocol: The samples were shaken at 110 rpm for 45 min at 37° C. Samples were then filtered through GF/B 96 well filter plates and washed twice with 300 μL assay buffer (PBS containing 0.1% BSA and 2% DMSO). Thereafter, filter plates were sealed and a Fuji Film Imaging Plate (BAS-SR2025) was placed on top. The imaging plate was analyzed after overnight exposition using a Fuji Film BAS-5000. […] IC50 values were calculated by Prism V6 (GraphPad) setting total binding to 100%.

amyloid-beta = amyloid-beta (Homo sapiens, UniProt P05067); experiment: Binding affinity to amyloid-beta in AD brain homogenate; conditions: human AD brain homogenate; non-radioactive derivatives
amyloid-beta, sequence (P05067 672-711 limits assumed): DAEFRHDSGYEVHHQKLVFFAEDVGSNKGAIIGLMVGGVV
Protocol: as §1, with “beta-amyloid” for “Tau”, “beta-amyloid” for “Tau-reference”, “beta-amyloid binder” for “Tau-binder”

[3] = PK studies in healthy mice (PET); type: in vivo, NMRI mice; conditions: 18F tracer; for Mouse PK De-fluorination: bone uptake, footnote f: no de-fluorination detected; for Mouse PK Uptake: brain; for Mouse PK Washout: ratio of uptake peak/30 min
Protocol: NMRI mice (weight range 25-35 g) were injected intravenously with the ^18F-labeled compounds. Up to 150 μL of 1×PBS solution with 10%-15% EtOH or dilution medium ([…]) containing the ^18F-labeled compound (2-10 MBq) were injected. Anesthesia with isoflurane was induced before injection of the tracer and maintained during the image acquisition period. PET scans were performed using a SIEMENS INVEON small animal PET/CT scanner (Siemens, Knoxville, Tenn.). PET acquisition was started immediately before the radioactive dose was injected into the animal through the tail vein. Images were generated as dynamic scans for 60 minutes.
The peak uptake in the brain was set to 100% and washout curves were generated to evaluate the clearance of the activity from the normal brain (FIG. 2).

[4] = human AD brain homogenate, determined with non-radioactive F-1, F-2, F-3a, read-out: IC50 for tau binding in AD brain homogenate
[5] = 18F-FEH competition, non-radioactive derivatives, read-out: IC50 MAO A in mouse brain homogenate
[6] = IC50 in AD brain homogenate, non-radioactive fluorine-19 derivatives, read-out: high Tau binding
[7] = grade, AD brain homogenate, non-radioactive fluorine-19 derivatives, read-out: high Tau binding
[8] = IC50 in mouse brain homogenate, fluorine-19 derivatives, read-out: low MAO A binding
[9] = grade, IC50 in mouse brain homogenate, fluorine-19 derivatives, read-out: low MAO A binding

Row | SMILES | IC50 (Tau; [4]) [nM] | IC50 (MAO A [1]; [5]) [nM] | IC50 (MAO A [2]) | IC50 (MAO B) [nM] | IC50 (amyloid-beta) [nM] | IC50 (Tau; [6]) [nM] | IC50 (Tau; [7]) [nM] | Selectivity over MAO A (in words) (MAO A [1]) | Mouse PK De-fluorination [3] | Mouse PK Uptake [3] | Mouse PK Washout [3] | IC50 (MAO A [1]; [8]) [nM] | IC50 (MAO A [1]; [9]) [nM] | Binding affinity for Tau (in words) (Tau) | IC50 (MAO A [1]; low MAO A binding [nM], IC50 in mouse brain homogenate, fluorine-19 derivatives) [nM] | IC50 (MAO A [1]; low MAO A binding, grade, IC50 in mouse brain homogenate, fluorine-19 derivatives) [nM]
1 | Fc1ccc(-c2ccc3c(c2)[nH]c2ccncc23)cn1 [Example F-1] | < 2 | 22 | 5 nM | 170 | > 1000 |  |  |  |  |  |  |  |  |  |  | 
2 | Fc1cnccc1-c1ccc2c(n1)[nH]c1ccncc12 [Example F-3b] |  |  |  |  |  | < 5 | < 5 |  |  | (4.0% ID/g) | (19.4) | 765 |  |  |  | 
3 | Fc1ccc(-c2ccc3c(n2)[nH]c2ccncc23)nc1 [Example F-8] |  |  |  |  |  | < 5 | < 5 | Inferior |  |  |  | 75 |  |  |  | 
4 | Fc1cccnc1-c1ccc2c(n1)[nH]c1ccncc12 [Example F-10] |  |  |  |  |  | 103 |  |  | (6.2% ID/g) | (2.1% ID/g) | (3.6) |  |  | poor | > 1000 | > 1000

The next lines start with results.

Row | IC50 (Tau; [4]) [nM] | IC50 (MAO A [1]; [5]) [nM] | IC50 (MAO A [2]) | IC50 (MAO B) [nM] | IC50 (amyloid-beta) [nM] | IC50 (Tau; [6]) [nM] | IC50 (Tau; [7]) [nM] | Selectivity over MAO A (in words) (MAO A [1]) | Mouse PK De-fluorination [3] | Mouse PK Uptake [3] | Mouse PK Washout [3] | IC50 (MAO A [1]; [8]) [nM] | IC50 (MAO A [1]; [9]) [nM] | Binding affinity for Tau (in words) (Tau) | SMILES | IC50 (MAO A [1]; low MAO A binding [nM], IC50 in mouse brain homogenate, fluorine-19 derivatives) [nM] | IC50 (MAO A [1]; low MAO A binding, grade, IC50 in mouse brain homogenate, fluorine-19 derivatives) [nM]
5 | < 2 | 475 | 100 nM |  | > 1000 | < 5 | < 5 | Inferior | (6.2% ID/g) | (5.7% ID/g) | (10.9) |  |  |  | Fc1ccc(-c2ccc3c(n2)[nH]c2ccncc23)cn1 [Example F-2] |  | 
6 | < 2 | 1400 | 1100 nM and 530 nM |  | > 1000 | < 5 | < 5 |  | (<0.5% ID/g)^f | (4.4-5.9% ID/g) ^ | (11.2-16.6) | > 1000 | > 1000 |  | Fc1cc(-c2ccc3c(n2)[nH]c2ccncc23)ccn1 [Example F-3a] |  | 
7 |  |  |  |  |  | 6.3 |  |  | (2.9% ID/g) | (5.3% ID/g) | (9.6) | > 1000 | > 1000 | inferior | Fc1cncc(-c2ccc3c(n2)[nH]c2ccncc23)c1 [Example F-5] |  | 
8 |  |  |  |  |  | 43 |  |  | (4.8% ID/g) | (8.2% ID/g) | (14.5) | > 1000 | > 1000 | poor | Fc1ccncc1-c1ccc2c(n1)[nH]c1ccncc12 [Example F-6] |  | 
9 |  |  |  |  |  | 7.1 |  | Inferior | (11.1% ID/g) | (8.5% ID/g) | (7.0) | 268 |  | inferior | Fc1cccc(-c2ccc3c(n2)[nH]c2ccncc23)n1 [Example F-7] |  | 
10 |  |  |  |  |  | 8.4 |  |  |  |  |  | > 1000 | > 1000 | inferior | Fc1ccnc(-c2ccc3c(n2)[nH]c2ccncc23)c1 [Example F-9] |  | 
